Reference: ChEMBL document CHEMBL1806429, “Angiotensin-I-converting enzyme inhibitory peptides: Chemical feature based pharmacophore generation” (Eur J Med Chem, 2011)
Residues, ends and D or L forms follow the SMILES beside them.

target: T1, Angiotensin-converting enzyme (Oryctolagus cuniculus, UniProt P12822); assay: Inhibition of rabbit lung ACE preincubated for 5 mins by spectrophotometric assay
T1 sequence (P12822 whole entry): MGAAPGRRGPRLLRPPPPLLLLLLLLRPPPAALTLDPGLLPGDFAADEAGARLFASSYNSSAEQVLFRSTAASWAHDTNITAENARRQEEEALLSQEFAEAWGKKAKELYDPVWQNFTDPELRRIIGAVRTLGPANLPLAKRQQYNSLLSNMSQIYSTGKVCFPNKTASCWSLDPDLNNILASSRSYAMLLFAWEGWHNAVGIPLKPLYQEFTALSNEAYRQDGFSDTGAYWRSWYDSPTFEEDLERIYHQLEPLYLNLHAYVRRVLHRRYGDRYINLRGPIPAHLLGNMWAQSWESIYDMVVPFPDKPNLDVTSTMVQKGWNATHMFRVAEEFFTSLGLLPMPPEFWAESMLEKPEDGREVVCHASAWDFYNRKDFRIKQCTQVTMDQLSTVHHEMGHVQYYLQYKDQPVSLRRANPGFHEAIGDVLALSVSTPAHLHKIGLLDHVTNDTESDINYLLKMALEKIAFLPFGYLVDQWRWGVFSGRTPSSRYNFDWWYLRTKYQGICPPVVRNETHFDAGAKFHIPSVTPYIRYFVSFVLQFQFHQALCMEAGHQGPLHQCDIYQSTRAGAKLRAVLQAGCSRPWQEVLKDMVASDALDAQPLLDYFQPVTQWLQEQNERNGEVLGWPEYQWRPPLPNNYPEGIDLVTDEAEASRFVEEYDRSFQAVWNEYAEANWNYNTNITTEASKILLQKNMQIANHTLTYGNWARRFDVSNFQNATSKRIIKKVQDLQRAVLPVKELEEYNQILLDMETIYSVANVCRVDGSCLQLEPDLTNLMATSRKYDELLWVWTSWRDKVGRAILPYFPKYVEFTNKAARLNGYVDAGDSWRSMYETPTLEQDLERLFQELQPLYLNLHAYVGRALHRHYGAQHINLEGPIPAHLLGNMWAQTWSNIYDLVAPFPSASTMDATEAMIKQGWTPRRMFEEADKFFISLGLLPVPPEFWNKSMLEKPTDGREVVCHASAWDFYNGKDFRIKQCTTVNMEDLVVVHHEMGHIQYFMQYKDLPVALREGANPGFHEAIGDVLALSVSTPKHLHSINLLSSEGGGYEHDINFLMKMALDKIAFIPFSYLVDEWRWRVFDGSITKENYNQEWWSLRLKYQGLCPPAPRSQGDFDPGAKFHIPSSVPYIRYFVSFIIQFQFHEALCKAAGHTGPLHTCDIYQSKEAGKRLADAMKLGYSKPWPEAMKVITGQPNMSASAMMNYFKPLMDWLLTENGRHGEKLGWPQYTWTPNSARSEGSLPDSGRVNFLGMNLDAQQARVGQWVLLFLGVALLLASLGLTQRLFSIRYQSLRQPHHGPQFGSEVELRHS

Row | Structure (SMILES) | IC50 [µM]
1 | C[C@H](NC(=O)[C@@H](N)CCCNC(=N)N)C(=O)N1CCC[C@H]1C(=O)O (H-Arg-Ala-Pro-OH) | 16
2 | NC(N)=NCCC[C@H](N)C(=O)N[C@@H](CO)C(=O)N1CCC[C@H]1C(=O)O (H-Arg-Ser-Pro-OH) | 248
3 | CC(C)[C@H](NC(=O)[C@@H](N)Cc1ccccc1)C(=O)N[C@@H](C)C(=O)N1CCC[C@H]1C(=O)O (H-FVAP-OH) | 10
4 | CC[C@H](C)[C@H](N)C(=O)N1CCC[C@H]1C(=O)O (H-Ile-Pro-OH) | 150
5 | CC(C)C[C@H](N)C(=O)N[C@@H](C)C(=O)N1CCC[C@H]1C(=O)O (H-Leu-Ala-Pro-OH) | 0.7
6 | CC(C)C[C@H](N)C(=O)N[C@@H](CCCCN)C(=O)N1CCC[C@H]1C(=O)O (H-Leu-Lys-Pro-OH) | 0.32
7 | N[C@@H](Cc1ccccc1)C(=O)N1CCC[C@H]1C(=O)O (H-Phe-Pro-OH) | 210
8 | N[C@@H](Cc1ccccc1)C(=O)N1CCC[C@H]1C(=O)N1CCC[C@H]1C(=O)O (H-Phe-Pro-Pro-OH) | 78
9 | O=C(NCC(=O)N1CCC[C@H]1C(=O)O)[C@@H]1CCCN1 (H-Pro-Gly-Pro-OH) | 97.3
10 | CC(C)C[C@H](NC(=O)[C@@H]1CCCN1C(=O)[C@@H]1CCCN1)C(=O)O (H-Pro-Pro-Leu-OH) | 427
11 | O=C(N[C@@H](Cc1ccc(O)cc1)C(=O)N1CCC[C@H]1C(=O)O)[C@@H]1CCCN1 (H-Pro-Tyr-Pro-OH) | 220
12 | N[C@@H](Cc1ccc(O)cc1)C(=O)N1CCC[C@H]1C(=O)O (H-Tyr-Pro-OH) | 720
13 | CC(C)[C@H](N)C(=O)N[C@@H](C)C(=O)N1CCC[C@H]1C(=O)O (H-Val-Ala-Pro-OH) | 2

Results, then the compound that gave them:

Row | IC50 [µM] | Structure (SMILES)
14 | 2500 | C[C@H](N)C(=O)NCC(=O)O (H-Ala-Gly-OH)
15 | 9000 | C[C@H](N)C(=O)N[C@@H](Cc1c[nH]cn1)C(=O)O (H-Ala-His-OH)
16 | 300 | CC(C)[C@H](NC(=O)[C@H](C)N)C(=O)O (H-Ala-Val-OH)
17 | 340 | CC(C)[C@H](NC(=O)[C@H](C)N)C(=O)N1CCC[C@H]1C(=O)O (H-Ala-Val-Pro-OH)
18 | 5400 | NCC(=O)N[C@@H](CCC(=O)O)C(=O)O (H-Gly-Glu-OH)
19 | 5400 | NCCCC[C@H](NC(=O)CN)C(=O)O (H-Gly-Lys-OH)
20 | 3.7 | CC[C@H](C)[C@H](N)C(=O)N[C@@H](Cc1ccc(O)cc1)C(=O)O (H-Ile-Tyr-OH)
21 | 81 | CC(C)C[C@H](N)C(=O)N[C@@H](CC(N)=O)C(=O)N[C@@H](Cc1ccc(O)cc1)C(=O)O (H-Leu-Asn-Tyr-OH)
22 | 160 | NCCCC[C@H](NC(=O)CNC(=O)[C@@H](N)Cc1ccccc1)C(=O)O (H-Phe-Gly-Lys-OH)
23 | 36 | CC(C)C[C@H](NC(=O)[C@@H]1CCCN1)C(=O)N[C@@H](Cc1c[nH]c2ccccc12)C(=O)O (H-Pro-Leu-Trp-OH)
24 | 7 | CC(C)[C@H](N)C(=O)N[C@@H](Cc1ccc(O)cc1)C(=O)O (H-Val-Tyr-OH)
